US20070249603A1, “3-Arylsulfonyl-Quinolines as 5-Ht6 Receptor Antagonists for the Treatment of Cns Disorders” (priority 2004, published 2007)
Structures can show the parent of a compound that is named as a salt.

Biological target: T1, human cloned 5-HT6 receptors (Homo sapiens, UniProt P50406)
T1 construct: expressed in transfected cells; host or cells: HeLa cells expressing cloned 5-HT6 receptor (membranes)
Test: Cyclase assay (cAMP production in membranes of HeLa 5HT6 cells, antagonism of 5-HT)
Assay type: biochemical
Conditions: antagonist potency, 5-HT at 4×EC50, functional Ki by Cheng-Prusoff from IC50, read-out: fpKi (negative log10 of the molar functional Ki) (converted)
Procedure: Compounds of the invention may be tested for in vitro biological activity in accordance with the following cyclase assay:
0.5 μl of test compound in 100% dimethylsulfoxide (DMSO) was added to a white, solid 384 well assay plate (for dose response measurements the top of the concentration range is 7.5 μM final). […]
cAMP production was then measured using the DiscoveRx™ HitHunter™ chemiluminescence cAMP assay kit (DiscoveRx Corporation, 42501 Albrae Street, Fremont, Calif. 94538; Product Code: 90-0004L) or any other suitable cAMP measurement assay.
IC50 values were estimated from arbitrary designated unit (ADU) measurements from a Perkin Elmer Viewlux instrument using a four parameter logistic curve fit within EXCEL (Bowen, W. P. and Jerman, J. C. (1995), Nonlinear regression using spreadsheets. Trends in Pharmacol. Sci., 16, 413-417). Functional Ki values were calculated using the method of Cheng, Y. C. and Prussof, W. H. (Biochemical Pharmacol (1973) 22 3099-3108). pI50 and fpKi are the negative log10 of the molar IC50 and functional Ki respectively.

T1 sequence (P50406 whole entry): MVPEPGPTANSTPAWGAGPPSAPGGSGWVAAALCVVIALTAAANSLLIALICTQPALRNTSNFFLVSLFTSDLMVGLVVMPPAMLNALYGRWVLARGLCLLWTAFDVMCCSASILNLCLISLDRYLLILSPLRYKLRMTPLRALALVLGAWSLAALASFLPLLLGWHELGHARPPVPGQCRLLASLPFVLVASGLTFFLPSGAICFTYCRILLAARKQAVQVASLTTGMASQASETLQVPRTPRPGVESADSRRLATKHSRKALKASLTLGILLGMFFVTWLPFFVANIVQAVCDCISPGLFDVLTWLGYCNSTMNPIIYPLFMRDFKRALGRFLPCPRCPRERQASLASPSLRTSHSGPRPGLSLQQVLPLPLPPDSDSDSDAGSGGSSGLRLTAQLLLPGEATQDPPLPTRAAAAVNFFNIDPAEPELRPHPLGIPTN

## CN(C)C1CCN(c2ccc(I)c3cc(S(=O)(=O)c4ccccc4)cnc23)CC1 [Example 13, 1-[5-Iodo-3-(phenylsulfonyl)-8-quinolinyl]-N,N-dimethyl-4-piperidinamine hydrochloride]
  Ki: 158 nM
